Entries after “also recorded” stand apart in the source; their conditions may differ.
Experiments:
[1] = tested on: pituitrin-induced myocardial ischemic injury; assay: Effect on pituitrin-induced myocardial ischemic injury (routine leads ECG: T wave, cardioverter); assay type: in vivo, SD rats; settings: for effect on the cardioverter, in words: comparison with the controls groups, P>0.05; for inhibition of the rising of T wave by pituitrin-induced, in words: in 15 sec
Experimental: (§1) The conjugate obtained from example 8 was used as the testing reagent in the following study, while native Cyclovirobuxine D was used as positive control. Both samples were dissolved in sodium acetate (pH 5.7) before injection.
Methods: 50 normal SD rats of each sex, weighting 180-220 g, were randomly divided into five groups: controls, low dose of native Cyclovirobuxine D (0.25 mg/kg); middle dose of native Cyclovirobuxine D (0.5 mg/kg); low dose of the conjugate of Cyclovirobuxine D (0.25 mg/kg); middle dose of the conjugate of Cyclovirobuxine D (0.5 mg/kg). All rats were fasted before experiment for 12 hours, 1 g/kg urethane was administered by abdominal injection for anesthesia of the rats, and were placed in dorsal recumbency. A needle electrode was inserted into extremity subsurface carefully, examination leads ECG, holding 30 min, records the routine leads ECG The drug was given via vein of […] tail for each groups, after 10 min, 1.5 u/kg pituitrin was injected into dorsal veins of tongue, limited in 10 sec, records the routine leads ECG in 15 s, 30 s, 1, 2, 3, 5, 7, 10, 15 min after injected.

[2] = tested on: Kunming strain mice; assay: Acute toxicity study, single IV or IP injection, 14 days observation; assay type: in vivo
Experimental: as §1
Kunming strain mice, 50% male and 50% formale, weighing 19-21 g, were randomly divided into 5 groups in the study. (1) native Cyclovirobuxine D, (2) the conjugate of PEG and Cyclovirobuxine D. The mice were fasted 12 hours before the injections. Each mice was given a single injection, and the volume for both IV and IP injection was based on 0.3 ml/10 g formulation. […] After 14 days, the mice still alive were executed and then analyzed.

[3] = low dose 0.25 mg/kg iv, 1′ after pituitrin
[4] = low dose 0.25 mg/kg iv, 2′ after pituitrin
[5] = low dose 0.25 mg/kg iv, 3′ after pituitrin
[6] = low dose 0.25 mg/kg iv, 5′ after pituitrin
[7] = low dose 0.25 mg/kg iv, 7′ after pituitrin
[8] = low dose 0.25 mg/kg iv, 10′ after pituitrin
[9] = low dose 0.25 mg/kg iv, 15′ after pituitrin
[10] = low dose 0.25 mg/kg iv, 15″ after pituitrin 1.5 u/kg
[11] = low dose 0.25 mg/kg iv, 30″ after pituitrin
[12] = middle dose 0.5 mg/kg iv, 1′ after pituitrin
[13] = middle dose 0.5 mg/kg iv, 2′ after pituitrin
[14] = middle dose 0.5 mg/kg iv, 3′ after pituitrin
[15] = middle dose 0.5 mg/kg iv, 5′ after pituitrin
[16] = middle dose 0.5 mg/kg iv, 7′ after pituitrin
[17] = middle dose 0.5 mg/kg iv, 10′ after pituitrin
[18] = middle dose 0.5 mg/kg iv, 15′ after pituitrin
[19] = middle dose 0.5 mg/kg iv, 15″ after pituitrin 1.5 u/kg
[20] = middle dose 0.5 mg/kg iv, 30″ after pituitrin
[21] = middle dose 0.5 mg/kg iv, time 0

α-methoxy-polyethylene-glycol-ω-glu-glu-gly-Cyclovirobuxine D ester [Example 8]
effect on the cardioverter, in words ([1]; listed as the conjugate of Cyclovirobuxine D): no significantly effect; also recorded: no significant effect | cardioverter (X ± S) [1, 3]: 150 ± 96.44 | rising of T wave (X ± S) [1, 3]: 0.25 ± 0.062 | cardioverter (X ± S) [1, 4]: 180 ± 60.00 | rising of T wave (X ± S) [1, 4]: 0.22 ± 0.102 | cardioverter (X ± S) [1, 5]: 200 ± 56.57 | rising of T wave (X ± S) [1, 5]: 0.28 ± 0.071 | cardioverter (X ± S) [1, 6]: 240 ± 69.28 | rising of T wave (X ± S) [1, 6]: 0.33 ± 0.056 | cardioverter (X ± S) [1, 7]: 260 ± 44.72 | rising of T wave (X ± S) [1, 7]: 0.35 ± 0.067 | cardioverter (X ± S) [1, 8]: 260 ± 44.72 | rising of T wave (X ± S) [1, 8]: 0.32 ± 0.052 | cardioverter (X ± S) [1, 9]: 300 ± 91.65 | rising of T wave (X ± S) [1, 9]: 0.33 ± 0.069 | cardioverter (X ± S) [1, 10]: 270 ± 145.94 | rising of T wave (X ± S) [1, 10]: 0.24 ± 0.059 | cardioverter (X ± S) [1, 11]: 200 ± 128.06 | rising of T wave (X ± S) [1, 11]: 0.17 ± 0.123 | cardioverter (X ± S) ([1]; low dose 0.25 mg/kg iv, time 0): 420 ± 60.00 | rising of T wave (X ± S) ([1]; low dose 0.25 mg/kg iv, time 0): 0.25 ± 0.064 | inhibition of the rising of T wave by pituitrin-induced, in words ([1]; low dose groups, 0.25 mg/kg, vs control groups P<0.01): could inhibit | cardioverter (X ± S) [1, 12]: 180 ± 60.00 | rising of T wave (X ± S) [1, 12]: 0.28 ± 0.049 | cardioverter (X ± S) [1, 13]: 200 ± 56.57 | rising of T wave (X ± S) [1, 13]: 0.27 ± 0.029 | cardioverter (X ± S) [1, 14]: 240 ± 0.00 | rising of T wave (X ± S) [1, 14]: 0.28 ± 0.029 | cardioverter (X ± S) [1, 15]: 260 ± 44.72 | rising of T wave (X ± S) [1, 15]: 0.31 ± 0.059 | cardioverter (X ± S) [1, 16]: 280 ± 56.57 | rising of T wave (X ± S) [1, 16]: 0.31 ± 0.059 | cardioverter (X ± S) [1, 17]: 280 ± 56.57 | rising of T wave (X ± S) [1, 17]: 0.30 ± 0.065 | cardioverter (X ± S) [1, 18]: 280 ± 56.57 | rising of T wave (X ± S) [1, 18]: 0.33 ± 0.072 | cardioverter (X ± S) [1, 19]: 340 ± 44.72 | rising of T wave (X ± S) [1, 19]: 0.33 ± 0.123 | cardioverter (X ± S) [1, 20]: 260 ± 107.70 | rising of T wave (X ± S) [1, 20]: 0.22 ± 0.107 | cardioverter (X ± S) [1, 21]: 420 ± 60.00 | rising of T wave (X ± S) [1, 21]: 0.23 ± 0.046 | toxicity compared with native Cyclovirobuxine D, in words ([2]; iv and ip administration, from LD50): lower toxicity

CN[C@@H](C)[C@H]1[C@H](O)C[C@@]2(C)[C@@H]3CC[C@H]4C(C)(C)[C@@H](NC)CC[C@@]45C[C@@]35CC[C@]12C [native Cyclovirobuxine D, Cyclovirobuxine D]
effect on the cardioverter, in words [1]: no significantly effect | effect on the cardioverter, in words ([1]; listed as Native Cyclovirobuxine D): no significant effect | cardioverter (X ± S) [1, 3]: 228.3 ± 44.41 | rising of T wave (X ± S) [1, 3]: 0.22 ± 0.08 | cardioverter (X ± S) [1, 4]: 250.3 ± 29.14 | rising of T wave (X ± S) [1, 4]: 0.18 ± 0.065 | cardioverter (X ± S) [1, 5]: 267.6 ± 44.71 | rising of T wave (X ± S) [1, 5]: 0.21 ± 0.072 | cardioverter (X ± S) [1, 6]: 266.4 ± 30.09 | rising of T wave (X ± S) [1, 6]: 0.22 ± 0.081 | cardioverter (X ± S) [1, 7]: 270.6 ± 30.52 | rising of T wave (X ± S) [1, 7]: 0.21 ± 0.076 | cardioverter (X ± S) [1, 8]: 289.8 ± 43.91 | rising of T wave (X ± S) [1, 8]: 0.23 ± 0.075 | cardioverter (X ± S) [1, 9]: 315.0 ± 63.39 | rising of T wave (X ± S) [1, 9]: 0.24 ± 0.081 | cardioverter (X ± S) [1, 10]: 351.6 ± 90.78 | rising of T wave (X ± S) [1, 10]: 0.50 ± 0.092 | cardioverter (X ± S) [1, 11]: 202.9 ± 42.85 | rising of T wave (X ± S) [1, 11]: 0.23 ± 0.061 | cardioverter (X ± S) ([1]; low dose 0.25 mg/kg iv, time 0): 392.4 ± 48.11 | rising of T wave (X ± S) ([1]; low dose 0.25 mg/kg iv, time 0): 0.20 ± 0.040 | cardioverter (X ± S) [1, 12]: 196.2 ± 52.90 | rising of T wave (X ± S) [1, 12]: 0.23 ± 0.068 | cardioverter (X ± S) [1, 13]: 215.4 ± 45.47 | rising of T wave (X ± S) [1, 13]: 0.23 ± 0.051 | cardioverter (X ± S) [1, 14]: 236.7 ± 47.92 | rising of T wave (X ± S) [1, 14]: 0.23 ± 0.047 | cardioverter (X ± S) [1, 15]: 256.6 ± 51.26 | rising of T wave (X ± S) [1, 15]: 0.24 ± 0.040 | cardioverter (X ± S) [1, 16]: 268.6 ± 53.15 | rising of T wave (X ± S) [1, 16]: 0.25 ± 0.048 | cardioverter (X ± S) [1, 17]: 260.8 ± 93.87 | rising of T wave (X ± S) [1, 17]: 0.27 ± 0.044 | cardioverter (X ± S) [1, 18]: 297.6 ± 41.30 | rising of T wave (X ± S) [1, 18]: 0.26 ± 0.040 | cardioverter (X ± S) [1, 19]: 331.1 ± 41.18 | rising of T wave (X ± S) [1, 19]: 0.34 ± 0.119 | cardioverter (X ± S) [1, 20]: 234.5 ± 85.06 | rising of T wave (X ± S) [1, 20]: 0.19 ± 0.116 | cardioverter (X ± S) [1, 21]: 389.6 ± 46.56 | rising of T wave (X ± S) [1, 21]: 0.21 ± 0.052 | inhibition of the rising of T wave by pituitrin-induced, in words ([1]; middle dose groups, 0.5 mg/kg, vs control group P<0.01): could inhibit | LD50 in IP injection ([2]; Kunming mice, single IP injection, 14 days observation): 97.52 mg/kg | LD50 in IV injection ([2]; Kunming mice, single IV injection, 14 days observation): 11.77 mg/kg

Reference: patent US20070048252A1, “Conjugates of the hydrophilic polymer and the molecules from boxwood extraction, and pharmaceutical compositions of the conjugates” (Beijingn Jenkem Technology CO., Ltd., priority 2003, published 2007)
